PubChem BioAssay AID1919009 (Molecular Pharmacology Branch, DTP, NCI, 2023)

Tested on: K24384-001-R-PDC complex spheroid growth
Assay: Anticancer human tumor K24384-001-R-PDC patient-derived pancreatic adenocarcinoma cell line growth inhibition [AhR]
Conditions: for IC50: curve of first compound; for viability, T/C: stronger effect = lower value; active means viability on the fitted dose curve at most 10% of control; inactive means the rest
From the text: Multicellular complex tumor spheroid response to aryl hydrocarbon receptor antagonists in combination with a variety of drugs and investigational agents in selected tumor cell lines
The current study was undertaken to assess response to aryl hydrocarbon receptor antagonists in combination with standard-of-care drugs and investigational agents in solid tumor complex spheroid models. Complex spheroids include a stromal component modeled by human endothelial cells (HUVEC) and fibroblasts modeled by human mesenchymal stem cells (MSCs). The concentration ranges selected for each drug and investigational agent were based upon clinically achievable concentrations if the clinical Cmax of the agent was known.
Compounds. The drugs and investigational agents: BAY 2416964 (NSC825713), GNF351 (NSC835774), CH-223191 (NSC835775), CPI-455 (NSC825282), aza-TdCyd (NSC777586), decitabine (NSC127716), belinostat (NSC758774), entinostat (NSC756642), pevonedistat (NSC761192), tazemetostat (NSC777109), talazoparib (NSC765396), olaparib (NSC753686), selinexor (NSC780203), nedisertib (M3814, NSC802822), bortezomib (NSC756655), venetoclax (NSC766270), doxorubicin (NSC123127), elimusertib (BAY189344, NSC800525), ceralasertib (AZD6738, NSC777638), TAK-243 (NSC785004), alisertib (NSC759677), etoposide (NSC141540), topotecan (NSC609699), eribulin (NSC707389), gemcitabine (NSC613327), carboplatin (NSC241240), cisplatin (NSC119875), and SN-38 (NSC673596) were obtained from the National Cancer Institute (NCI) Developmental Therapeutics Program Chemical Repository (32). The FDA-approved anticancer drug set is available from the Developmental Therapeutics Program at https://dtp.cancer.gov/organization/dscb/obtaining/available plates.htm. […] The stock solutions were prepared in dimethyl sulfoxide (DMSO, Sigma-Aldrich, St. Louis, MO, cat. D2650), except for the platinum compounds which were prepared in saline (Quality Biological, Gaithersburg, MD, cat. 114-055-101), at 800-fold the tested concentration and stored at -70 degrees C prior to their use. All drugs and investigational agents were tested over a range starting from a high concentration at or near the clinical Cmax and decreasing in half-log increments. If the clinical Cmax for an agent had not been determined, the highest concentration tested was 10 microM (Table 1).
Cell Culture. All cells were maintained in an incubator at 37 degrees C and 5% CO2 with 95% humidity. The PDC lines were cultured according to standard operating procedures established by the NCI PDMR (https://pdmr.cancer.gov). Briefly, all PDCs were thawed and cultured in Matrigel-coated flasks prepared with a working solution of 1X Ham's F-12 nutrient mix, without supplementation (Invitrogen, Waltham, MA, cat. 11765054), 100 U/mL penicillin-streptomycin (Invitrogen, cat. 15140122), and 2.5% Matrigel (Corning Inc., Corning, NY, cat. 354248) for the first three passages. All PDCs were cultured in complete DMEM/F-12 media containing advanced DMEM/F-12 (Invitrogen, cat. 12634028), 4.9% defined fetal bovine serum, heat inactivated (HyClone Laboratories Inc., Logan, UT, cat. SH30070.03HI), 389 ng/mL hydrocortisone (Sigma-Aldrich, cat. H4001), 9.7 ng/mL human EGF recombinant protein (Invitrogen, cat. PHG0313), 23.4 microg/mL adenine (Sigma-Aldrich, cat. A2786), 97.3 U/mL penicillin-streptomycin (Invitrogen, cat. 15140122), 1.9 mM L-glutamine (Invitrogen, cat. 25030081), and 9.7 microM Y-27632 dihydrochloride (Tocris Bioscience, Bristol, United Kingdom, cat. 1254). The PDCs were cultured in complete DMEM/F12 media without 10 microM Y-27632 dihydrochloride for at least two passages prior to the screen. The established cell lines NCI-H1341 and […] were cultured in DMEM/F-12, HEPES (Invitrogen, cat. 11330032), 5% defined fetal bovine serum (HyClone Laboratories Inc., cat. SH30070.03), ITS premix universal culture supplement [insulin (5 microg/mL), transferrin (5 microg/mL), and selenious acid (5 ng/mL)] […]

[1] = second compound 0.1 µM, first compound 0.0316 µM
[2] = second compound 0.1 µM, first compound 0.1 µM
[3] = second compound 0.316 µM, first compound 0.0316 µM
[4] = second compound 0.316 µM, first compound 0.1 µM
[5] = second compound 1 µM, first compound 0.0316 µM
[6] = second compound 1 µM, first compound 0.1 µM
[7] = second compound 3.16 µM, first compound 0.0316 µM
[8] = second compound 3.16 µM, first compound 0.1 µM
[9] = second compound 10 µM, first compound 0.0316 µM
[10] = second compound 10 µM, first compound 0.1 µM
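Wherever viability, T/C is given: percent of DMSO vehicle-treated spheroid viability set as 100%.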

CC[C@@]1(O)C(=O)OCc2c1cc1n(c2=O)Cc2cc3c(CN(C)C)c(O)ccc3nc2-1 + CC(CO)NC(=O)c1cc(-c2ccc(Cl)cc2)nn(-c2cnn(C)c2)c1=O
47.9 nM: IC50 (second compound 0.316 µM)
76.3 nM: IC50 (second compound 0.1 µM)
inactive: viability, T/C (second compound 0.1 µM, first compound 0.000316 µM) 103% | viability, T/C (second compound 0.1 µM, first compound 0.001 µM) 101% | viability, T/C (second compound 0.1 µM, first compound 0.00316 µM) 100% | viability, T/C (second compound 0.1 µM, first compound 0.01 µM) 87.7% | viability, T/C [1] 64% | viability, T/C [2] 45.7% | viability, T/C (second compound 0.316 µM, first compound 0.000316 µM) 93.4% | viability, T/C (second compound 0.316 µM, first compound 0.001 µM) 111% | viability, T/C (second compound 0.316 µM, first compound 0.00316 µM) 99% | viability, T/C (second compound 0.316 µM, first compound 0.01 µM) 84.2% | viability, T/C [3] 54.7% | viability, T/C [4] 42.2% | viability, T/C (second compound 1 µM, first compound 0.000316 µM) 94.2% | viability, T/C (second compound 1 µM, first compound 0.001 µM) 120% | viability, T/C (second compound 1 µM, first compound 0.00316 µM) 104% | viability, T/C (second compound 1 µM, first compound 0.01 µM) 71.2% | viability, T/C [5] 57.3% | viability, T/C [6] 39.8% | viability, T/C (second compound 3.16 µM, first compound 0.000316 µM) 114% | viability, T/C (second compound 3.16 µM, first compound 0.001 µM) 103% | viability, T/C (second compound 3.16 µM, first compound 0.00316 µM) 90.9% | viability, T/C (second compound 3.16 µM, first compound 0.01 µM) 71.8% | viability, T/C [7] 53.5% | viability, T/C [8] 39.1% | viability, T/C (second compound 10 µM, first compound 0.000316 µM) 87.6% | viability, T/C (second compound 10 µM, first compound 0.001 µM) 81.9% | viability, T/C (second compound 10 µM, first compound 0.00316 µM) 100% | viability, T/C (second compound 10 µM, first compound 0.01 µM) 67.3% | viability, T/C [9] 52% | viability, T/C [10] 49.8%
> 100 nM: IC50 (second compound 10 µM)
31.7 nM: IC50 (second compound 1 µM)
42 nM: IC50 (second compound 3.16 µM)

COc1cc(C2c3cc4c(cc3C(OC3OC5COC(C)OC5C(O)C3O)C3COC(=O)C23)OCO4)cc(OC)c1O (stereo not given) + CC(CO)NC(=O)c1cc(-c2ccc(Cl)cc2)nn(-c2cnn(C)c2)c1=O
921 nM: IC50 (second compound 0.316 µM)
611 nM: IC50 (second compound 10 µM)
inactive: viability, T/C [1] 96.8% | viability, T/C [2] 102% | viability, T/C (second compound 0.1 µM, first compound 0.316 µM) 75.9% | viability, T/C (second compound 0.1 µM, first compound 1 µM) 60.8% | viability, T/C (second compound 0.1 µM, first compound 3.16 µM) 39.8% | viability, T/C (second compound 0.1 µM, first compound 10 µM) 33.5% | viability, T/C [3] 89.5% | viability, T/C [4] 93.4% | viability, T/C (second compound 0.316 µM, first compound 0.316 µM) 78.1% | viability, T/C (second compound 0.316 µM, first compound 1 µM) 48.4% | viability, T/C (second compound 0.316 µM, first compound 3.16 µM) 30% | viability, T/C (second compound 0.316 µM, first compound 10 µM) 28.5% | viability, T/C [5] 95.9% | viability, T/C [6] 96.4% | viability, T/C (second compound 1 µM, first compound 0.316 µM) 78.1% | viability, T/C (second compound 1 µM, first compound 1 µM) 52.7% | viability, T/C (second compound 1 µM, first compound 3.16 µM) 36% | viability, T/C (second compound 1 µM, first compound 10 µM) 30.8% | viability, T/C [7] 74.6% | viability, T/C [8] 82.4% | viability, T/C (second compound 3.16 µM, first compound 0.316 µM) 80.4% | viability, T/C (second compound 3.16 µM, first compound 1 µM) 41.2% | viability, T/C (second compound 3.16 µM, first compound 3.16 µM) 33.4% | viability, T/C (second compound 3.16 µM, first compound 10 µM) 29.6% | viability, T/C [9] 70.8% | viability, T/C [10] 72.9% | viability, T/C (second compound 10 µM, first compound 0.316 µM) 57.2% | viability, T/C (second compound 10 µM, first compound 1 µM) 44.7% | viability, T/C (second compound 10 µM, first compound 3.16 µM) 34.1% | viability, T/C (second compound 10 µM, first compound 10 µM) 33.7%
764 nM: IC50 (second compound 3.16 µM)
1170 nM: IC50 (second compound 1 µM)
1710 nM: IC50 (second compound 0.1 µM)
